Measured values: patent publication US20260256721A1, “ANTI-COCCIDIAL COMPOSITION COMPRISING QUINIC ACID AND USES THEREOF” (priority 2023, published 2026)
Like-named read-outs stand apart in the source and are kept apart here.

Tests used:
[1] = system: Eimeria tenella protozoa (sporozoites); assay: microbe, parasite or virus in culture; format: cell-based
Text: (§1) A certain amount of oocysts (eggs) of Eimeria tenella and Eimeria maxima protozoa (College of Veterinary Medicine, Gyeongsang National University, Korea) were put in a tube containing glass beads and crushed, and then, in order to remove crushed oocyst cell walls and other debris, internal sporocysts were purified using Percoll density gradient, and washed with a PBS solution. For excystation of internal sporozoites, reagents comprising sodium taurocholic acid (sigma aldirich, USA) and trypsin (Ginco, USA), respectively, were treated to Eimeria tenella and Eimeria maxima sporangia and they were incubated, and then washed with PBS (Phosphate-Buffered Saline) solution once and the protozoa were obtained.
Quinic acid (Sigma, Cas No. 77-95-2) at concentrations ranging from 0 to 1000 ppm was reacted with Eimeria tenella oocysts at 40° C. for 3 hours. Following this, only live protozoa (sporozoites) were counted by microscopy. The mortality rate (%) of the protozoa was measured for each substance treatment compared to the negative control group treated with PBS. The results, as shown in FIG. 1 and Table 2, confirmed the anti-coccidial efficacy of quinic acid depending on the concentration.
(§2) Then, the mortality rate (%) was measured when each substance was treated compared to a negative control group to which PBS was treated, and the result is shown in Table 3 below.
After reacting 0.1% (v/v) DMSO, quinic acid, chlorogenic acid, theogallin, and cryptochlorogenic acid, respectively, with Eimeria tenella protozoa at a concentration of 10 ppm at 40° C. for 3 hours, only living protozoa (sporozoites) were counted by microscopy. Then, the mortality rate (%) was measured when each substance was treated compared to a negative control group to which PBS was treated, and the result is shown in Table 5 below.
The Eimeria tenella protozoa were killed by treating the quinic acid or sugarcane extract up to 1000 ppm concentration at maximum, and the minimal treatment concentration showing a mortality rate of 50% or more against Eimeria tenella protozoa was shown in Table 6 below.

[2] = system: Eimeria maxima protozoa (sporozoites); assay: Direct killing effect against Eimeria maxima protozoa (live sporozoites counted by microscopy); format: cell-based; settings: 3 h, read-out: Mortality rate of Eimeria maxima orozites [Killed sporozoites %]
Text: as §1, §2

[3] = Eimeria tenella, 3 h, read-out: Mortality rate of Eimeria tenella orozites [Killed sporozoites %]
[4] = Eimeria tenella, 3 h, read-out: Mortality rate of Eimeria tenella sporozites [Killed sporozoites %]
[5] = Eimeria tenella, each substance treated up to 1000 ppm, minimum concentration with mortality rate of 50% or higher, x not defined (Table 4)
[6] = Eimeria tenella, 3 h, read-out: The mortality rate

Compound | mortality at 10 ppm [1, 3] | mortality at 10 ppm [2] | mortality at 10 ppm [1, 4] | Minimum Dose for killed 50% sporozoite [1, 5] | also measured
O=C(O)/C=C/c1ccc(O)c(O)c1 [Caffeic acid, caffeic acid, reference compound] | 0% | 0% |  |  | 
O=C(/C=C/c1ccc(O)c(O)c1)O[C@@H]1C[C@](O)(C(=O)O)C[C@@H](O)[C@H]1O [Chlorogenic acid, chlorogenic acid, reference compound] | 0% | 0% | 0% | 500 ppm | 
O=C(/C=C/c1ccc(O)c(O)c1)O[C@H]1[C@H](O)C[C@](O)(C(=O)O)C[C@H]1O [Cryptochlorogenic acid, cryptochlorogenic acid, reference compound] |  |  |  |  | Mortality rate of Eimeria tenella sporozites [Killed sporozoites %] ([1]; 10 ppm, 40° C., 3 hours, compared to PBS negative control (Table 5)): 0%
COc1cc(/C=C/C(=O)O)ccc1O [Ferulic acid, ferulic acid, reference compound] | 0% | 0% |  |  | 
O=C(O)[C@]1(O)C[C@@H](O)[C@@H](O)[C@H](O)C1 [Quinic acid, quinic acid] | 32% | 34% | 32% | 50 ppm | mortality at 0.78 ppm [1, 6]: 7.4%; mortality at 1.56 ppm [1, 6]: 14.9%; mortality at 3.125 ppm [1, 6]: 20.2%; mortality at 6.25 ppm [1, 6]: 25.5%; mortality at 12.5 ppm [1, 6]: 31.9%; mortality at 25 ppm [1, 6]: 35.1%; mortality at 50 ppm [1, 6]: 55.3%; mortality at 100 ppm [1, 6]: 59.6%; mortality at 250 ppm [1, 6]: 91.5%; mortality at 500 ppm [1, 6]: 97.9%; mortality at 1000 ppm [1, 6]: 100%; Minimum Dose for killed 50% sporozoite ([1]; Eimeria tenella, treated up to 1000 ppm at maximum, minimal concentration with mortality rate of 50% or more (Table 6)): 50 ppm
O=C(O)/C=C/c1cccc(O)c1 [m-coumaric acid, reference compound] |  | 6.4% |  | 500 ppm | mortality at 10 ppm ([1]; Eimeria tenella, 10 ppm, 40° C., 3 hours, compared to PBS negative control (Table 3), read-out: Mortality rate of Eimeria tenella orozites [Killed sporozoites %]): 10.7%
